Literature values as cited in publication PMC2923200, “Identification of a Cardiac Specific Protein Transduction Domain by In Vivo Biopanning Using a M13 Phage Peptide Display Library in Mice” (PLoS ONE, 2010).

Conditions: in vitro phage display screening by other investigators
Description: However, it is unclear how the ability of CTP to interact with these cellular components in vitro facilitates transduction of cardiac specific tissue in vivo. We currently are examining whether the transduction process is energy independent as well as whether it involves endocytosis. Also, the s ...

For APWHLSSQYSRT [CTP], the “affinity for binding to apatite-based, bone-like minerals” value is given as “high affinity” and the “affinity for binding to two specific sulfated carbohydrates” value is given as “high affinity”.
